In patent publication US20220411471A1, “CELL-PERMEABLE CYCLIC PEPTIDES AND USES THEREOF” (Unnatural Products Inc., priority 2019, published 2022):
Non-standard residues stand in square brackets, D forms with d. Residues, ends and D or L forms follow the SMILES beside them. Trp(6-Cl) = N[C@@H](Cc1c[nH]c2cc(Cl)ccc12)C(=O)O; Phe(4-Cl) = N[C@@H](Cc1ccc(Cl)cc1)C(=O)O; Phe(4-F) = N[C@@H](Cc1ccc(F)cc1)C(=O)O; 2Thi = N[C@@H](Cc1cccs1)C(=O)O; NMeL = CN[C@@H](CC(C)C)C(=O)O

Molecular target: T1, Human MDM2 (HDM2) 1-116 (Homo sapiens, UniProt Q00987)
T1 construct: Human MDM2 (HDM2) 1-116
Experiment: Fluorescence polarization assay, MDM2/p53 (Table 3)
Assay type: binding
Procedure: (§1) Human MDM2 (HDM2) 1-116 (20 μL) and FITC-labeled p53 (18-26), 50 nM and 10 nM respectively in 10 mM Tris, 50 mM NaCl, 0.01% Tween20, and 1 mM DTT at pH 7.4 were dispensed into an opaque, black, 384 well plate. Compounds dissolved in DMSO were pin transferred (˜200 nL) to the 384 well plate containing the MDM2/p53 solution. After incubation for 10 minutes, the fluorescence polarization was read on a Molecular Devices SpectraMax plate reader equipped with a Fluorescein FP cartridge. In addition to probe alone (positive control) and probe/MDM2 (negative control), a titration of linear p53(18-26) was included on every plate as an additional control. IC50 values were fit using either Prism or Collaborative Drug Discovery.
as §1, with “and FAM-labeled RFMDYWEGL-NH2,” for “and FITC-labeled p53 (18-26),”, “NaCl, 0.010%” for “NaCl, 0.01%”, “transferred (˜100-200” for “transferred (˜200”, “for 60” for “for 10”

T1 sequence (Q00987 1-116): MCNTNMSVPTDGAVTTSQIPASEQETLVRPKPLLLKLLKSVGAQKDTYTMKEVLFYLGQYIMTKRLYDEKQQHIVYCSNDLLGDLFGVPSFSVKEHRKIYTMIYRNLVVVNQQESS

Row | SMILES | IC50
1 | CC(C)C[C@@H]1NC(=O)[C@H](Cc2c[nH]c3cc(Cl)ccc23)NC(=O)[C@H](CCC(=O)O)NC(=O)[C@H](Cc2ccccc2)NC(=O)[C@@H]2CCCN2C(=O)[C@H]2CCCN2C(=O)[C@H](Cc2ccccc2)NC(=O)[C@H](CCC(=O)O)NC(=O)[C@H](Cc2c[nH]c3ccccc23)NC(=O)[C@H](CC(=O)O)NC1=O [Compound 1, [H]OC(=O)CC[C@@H]1NC(=O)[C@H](Cc2cn([H])c3ccccc23)NC(=O)[C@H](CC(=O)O[H])NC(=O)[C@H](CC(C)C)NC(=O)[C@H](Cc2c[nH]c3cc(Cl)ccc23)NC(=O)[C@H](CCC(=O)O[H])NC(=O)[C@H](Cc2ccccc2)NC(=O)[C@@H]2CCCN2C(=O)[C@H]2CCCN2C(=O)[C@H](Cc2ccccc2)NC1=O] (cyclo(FE[Trp(6-Cl)]LDWEF[dP]P)) | < 1000 nM
2 | CC(C)C[C@@H]1NC(=O)[C@H](Cc2c[nH]c3ccccc23)NC(=O)[C@H](CCC(=O)O)NC(=O)[C@H](Cc2ccccc2)NC(=O)[C@@H]2CCCN2C(=O)[C@H]2CCCN2C(=O)[C@H](Cc2ccccc2)NC(=O)[C@H](CCC(=O)O)NC(=O)[C@H](Cc2c[nH]c3ccccc23)NC(=O)[C@H](CC(=O)O)NC1=O [Compound 2, [H]OC(=O)CC[C@@H]1NC(=O)[C@H](Cc2cn([H])c3ccccc23)NC(=O)[C@H](CC(=O)O[H])NC(=O)[C@H](CC(C)C)NC(=O)[C@H](Cc2cn([H])c3ccccc23)NC(=O)[C@H](CCC(=O)O[H])NC(=O)[C@H](Cc2ccccc2)NC(=O)[C@@H]2CCCN2C(=O)[C@H]2CCCN2C(=O)[C@H](Cc2ccccc2)NC1=O] (cyclo(FEWLDWEF[dP]P)) | 1000 to 2500 nM
3 | CC(C)C[C@H]1C(=O)N[C@@H](CC(=O)O)C(=O)N[C@@H](Cc2c[nH]c3ccccc23)C(=O)N[C@@H](CCC(=O)O)C(=O)N[C@@H](Cc2ccccc2)C(=O)N2CCC[C@@H]2C(=O)N2CCC[C@H]2C(=O)N[C@@H](Cc2ccccc2)C(=O)N[C@@H](CCC(=O)O)C(=O)N[C@@H](Cc2c[nH]c3ccccc23)C(=O)N1C [Compound 3, [H]OC(=O)CC[C@@H]1NC(=O)[C@H](Cc2ccccc2)NC(=O)[C@@H]2CCCN2C(=O)[C@H]2CCCN2C(=O)[C@H](Cc2ccccc2)NC(=O)[C@H](CCC(=O)O[H])NC(=O)[C@H](Cc2cn([H])c3ccccc23)NC(=O)[C@H](CC(=O)O[H])NC(=O)[C@H](CC(C)C)N(C)C(=O)[C@H](Cc2cn([H])c3ccccc23)NC1=O] (cyclo(FEW[NMeL]DWEF[dP]P)) | < 1000 nM
4 | CC(C)C[C@H]1C(=O)N[C@@H](CC(=O)O)C(=O)N[C@@H](Cc2ccc(F)cc2)C(=O)N[C@@H](CCC(=O)O)C(=O)N[C@@H](Cc2ccc(Cl)cc2)C(=O)N2CCC[C@@H]2C(=O)N2CCC[C@H]2C(=O)N[C@@H](Cc2ccccc2)C(=O)N[C@@H](CCC(=O)O)C(=O)N[C@@H](Cc2c[nH]c3ccccc23)C(=O)N1C [Compound 4, [H]OC(=O)CC[C@@H]1NC(=O)[C@H](Cc2ccccc2)NC(=O)[C@@H]2CCCN2C(=O)[C@H]2CCCN2C(=O)[C@H](Cc2ccc(Cl)cc2)NC(=O)[C@H](CCC(=O)O[H])NC(=O)[C@H](Cc2ccc(F)cc2)NC(=O)[C@H](CC(=O)O[H])NC(=O)[C@H](CC(C)C)N(C)C(=O)[C@H](Cc2cn([H])c3ccccc23)NC1=O] (cyclo(FEW[NMeL]D[Phe(4-F)]E[Phe(4-Cl)][dP]P)) | < 1000 nM
5 | CC(C)C[C@H]1C(=O)N[C@@H](CC(=O)O)C(=O)N[C@@H](Cc2ccc(F)cc2)C(=O)N[C@@H](CCC(=O)O)C(=O)N[C@@H](Cc2ccccc2)C(=O)N2CCC[C@@H]2C(=O)N2CCC[C@H]2C(=O)N[C@@H](Cc2cccs2)C(=O)N[C@@H](CCC(=O)O)C(=O)N[C@@H](Cc2c[nH]c3ccccc23)C(=O)N1C [Compound 5, [H]OC(=O)CC[C@@H]1NC(=O)[C@H](Cc2cccs2)NC(=O)[C@@H]2CCCN2C(=O)[C@H]2CCCN2C(=O)[C@H](Cc2ccccc2)NC(=O)[C@H](CCC(=O)O[H])NC(=O)[C@H](Cc2ccc(F)cc2)NC(=O)[C@H](CC(=O)O[H])NC(=O)[C@H](CC(C)C)N(C)C(=O)[C@H](Cc2cn([H])c3ccccc23)NC1=O] (cyclo([2Thi]EW[NMeL]D[Phe(4-F)]EF[dP]P)) | < 1000 nM
